Values of other authors in patent US9428497B2, “Precursor compounds for the radiosynthesis of [18F] norchloro-fluorohomoepibatidine” (priority 2011, dated 2016).
Where two headings read alike, the source gives them in different places.

What was measured:
[1] = mice; compared with 2-[18F]F-A-85380
[2] = piglets; compared with 2-[18F]F-A-85380

[18F]c1ccc(C2CC3CCCC2N3)cn1 (single isomer, unassigned; (-)) [(−)-[^18F]NCFHEB, (−)-[^18F]norchloro-fluoro-homoepibatidine]
cerebral uptake relative to 2-[18F]F-A-85380 [1]: more than two times higher | cerebral uptake relative to 2-[18F]F-A-85380 [2]: more than two times higher
